Data from patent US12031986B2, “Polypeptide for targeting recognition of immune cells and application thereof” (KEYANGLE LIFE TECHNOLOGY CO., LTD., priority 2019, dated 2024).
Entries after “also recorded” stand apart in the source; their conditions may differ. No end group written: not given here. code X = not defined here

Tests used:
[1] = test system: mouse peritoneal macrophages; assay: In vivo fluorescent labeling of macrophages in a mouse abdominal cavity; conditions: probe injected into abdominal cavity, cells extracted after 4 hours, fluorescence microscope
Procedure: Dilute 300 μL of 50 μM AK9 fluorescent probe solution with serum-free DMEM incomplete medium to obtain 1 mL of solution, then inject into the abdominal cavities of 5-8 week old Kunming mice. After 4 hours, inject 5 mL of 1×PBS, and massage. After 10 minutes, sacrifice the mice by cervical vertebra dislocation. Cut the abdominal cavity skin of the mice, pierce the abdominal wall muscle by syringe, and extract the fluid in the abdominal cavity of the mice. Centrifuge the extracted peritoneal fluid at 1000 rpm for 5 min, wash twice with 1×PBS. Double-stain an appropriate number of cells with Alexa Fluor 488 anti-mouse F4/80 antibody (Biolegend). Add the stained cells to a 96-well plate and stain with a nuclear dye Nucblue (Invitrogen). Observe under EVOS FL Auto fluorescence microscope (Life Technologies, 20×, light source 50%, exposure 200 ms, gain 10) after the suspended cells were settled down at the bottom of the plate.
Table 1 lists probes, which contain the polypeptide fragments from the C-terminal fragments of Triokinases/FMN cyclases of different species and were prepared by a similar process as described in Examples 1 and 2, and in vivo imaging results of mouse peritoneal macrophages using these probes.

[2] = test system: mouse peritoneal macrophages; assay: In vitro fluorescent labeling of mouse peritoneal macrophages at different incubation times; assay type: cell-based
Procedure: Referring to Example 9, using the same treatment process, the macrophages from mouse abdominal cavity were obtained. After culturing for 6 days, the cultured peritoneal cells were labeled with KS24 fluorescent probes for different incubation times. Then the cells were observed under a fluorescence microscope (20×, light source 20%, exposure 200 ms, gain 5).
Nucblue (blue fluorescence) was further used for nuclear staining. In each of FIGS. 14A, 14B, 14C, and 14D, i) is an image labeled with the KS24 fluorescent probe (shown in red fluorescence in the original fluorescence color image), and ii) is an image obtained by nuclear staining with Nucblue (shown in blue fluorescence in the original fluorescence color image), and iii) is a merged image of i) and ii).

X-EQPDPSAVAAAAILRAILEVLQG (not fully specified (N-terminus); printed as X-EQPDPSAVAAAAILRAILEVLQG; also: N-terminal reporter, not given here) [KESG24, X = reporter or cysteine/lysine + reporter]
in vivo labeling / recognition of mouse peritoneal macrophages by the fluorescent probe [1]: can be labeled

X-EQPDPGAVAAAAILRAILEVLQS ({code X}-EQPDPGAVAAAAILRAILEVLQS; reading uncertain; also: reporter type not given here, printed as X-EQPDPGAVAAAAILRAILEVLQS; listed as Homo sapiens) [KS24, X = reporter or cysteine/lysine + reporter at N-terminal]
in vivo labeling / recognition of mouse peritoneal macrophages by the fluorescent probe [1]: can effectively recognize macrophages in vivo; also recorded: can be labeled | fluorescence detection with microscope ([2]; incubating only for 10 min): can be even detected | labeled fluorescence of the cells versus incubation time ([2]; incubation 10, 20, 40 and 80 min, cells cultured 6 days): gradually becomes stronger with the incubation time

X-TKNMEAGAGRASYISSARLEQPDPGAVAAAAILRAILEVLQS (not fully specified (N-terminus); listed as Homo sapiens) [TS42]
in vivo labeling / recognition of mouse peritoneal macrophages by the fluorescent probe [1]: can effectively recognize macrophages in vivo; also recorded: can be labeled

ILRAILEVLQS-Y (ILRAILEVLQSY; also: reporter type not given here; listed as Homo sapiens) [IK12, Y = reporter or cysteine/lysine + reporter]
in vivo labeling / recognition of mouse peritoneal macrophages by the fluorescent probe [1]: can effectively recognize macrophages in vivo; also recorded: can be labeled

AVLEVLQG-Y (AVLEVLQGY; also: reporter type not given here) [Hx-AVGK9, Y = reporter or cysteine/lysine + reporter]
in vivo labeling / recognition of mouse peritoneal macrophages by the fluorescent probe [1]: can be labeled
